Results as given in US7250433B2, “Tetrazole and oxadiazolone substituted β-amino acid derivatives” (Warner Lambert Company LLC, priority 2003, dated 2007).

SMILES	melting point
CC(C)CCC[C@@H](C)CCC(CN)c1nnn[nH]1 (stereo partly drawn)	185 °C (dec.)
CC(C)C(C)C(CN)c1nnn[nH]1 (stereo not drawn)	> 250 °C (dec.)
CCC(C(C)C)C(CN)c1nnn[nH]1 (stereo not drawn)	205 °C (dec.)
CC(Cc1cccc(C(F)(F)F)c1)C(CN)c1nnn[nH]1 (stereo not drawn)	163 °C (dec.)
CC(CCc1ccccc1)C(CN)c1nnn[nH]1 (stereo not drawn)	152 °C (dec.)
CCC(CC)C1CC1(CN)c1nnn[nH]1 (stereo not drawn)	> 250 °C (dec.)
CC(C)C1CC1(CN)C(=O)O.Cl (stereo not drawn)	245 to 246 °C
CC(C)CC1CC1(CN)C(=O)O.Cl (stereo not drawn)	254 to 255 °C
CC(Cc1ccc(F)cc1)C(CN)c1nnn[nH]1 (stereo not drawn) [Example 26, 4-(4-Fluoro-phenyl)-3-methyl-2-(1H-tetrazol-5-yl)-butylamine]	186 °C (dec.)

Results, then the compound that gave them:

melting point	SMILES
> 250 °C (dec.)	NCC(CC1CCCCC1)c1nnn[nH]1 (stereo not drawn)
194 °C (dec.)	CC(CC1CCCC1)C(CN)c1nnn[nH]1 (stereo not drawn)
216 °C (dec.)	CC(CC1CCCCC1)C(CN)c1nnn[nH]1 (stereo not drawn)
> 250 °C (dec.)	CC(C)C1CC1(CN)c1nnn[nH]1 (stereo not drawn)
231 to 235 °C (dec.)	NCC1(C(=O)O)CC12CCCC2 (stereo not drawn)
206 to 208 °C	Cl.NCC1(c2noc(=O)[nH]2)CC12CCCC2 (stereo not drawn)
179 to 181 °C (dec.)	Cl.NCC1(c2noc(=O)[nH]2)CC12CCCCC2 (stereo not drawn)
178 to 179 °C	CC(C)C1CC1(CN)c1noc(=O)[nH]1.Cl (stereo not drawn)
181 to 182 °C	CC(C)CC1CC1(CN)c1noc(=O)[nH]1.Cl (stereo not drawn)
